The values below come from the Kinase Knowledgebase extract (Sharma et al. 2016).

For orientation: IC50 means the midpoint of a concentration-inhibition curve.

Sequence of ROCK2 (human) (O75116 whole entry, looked up): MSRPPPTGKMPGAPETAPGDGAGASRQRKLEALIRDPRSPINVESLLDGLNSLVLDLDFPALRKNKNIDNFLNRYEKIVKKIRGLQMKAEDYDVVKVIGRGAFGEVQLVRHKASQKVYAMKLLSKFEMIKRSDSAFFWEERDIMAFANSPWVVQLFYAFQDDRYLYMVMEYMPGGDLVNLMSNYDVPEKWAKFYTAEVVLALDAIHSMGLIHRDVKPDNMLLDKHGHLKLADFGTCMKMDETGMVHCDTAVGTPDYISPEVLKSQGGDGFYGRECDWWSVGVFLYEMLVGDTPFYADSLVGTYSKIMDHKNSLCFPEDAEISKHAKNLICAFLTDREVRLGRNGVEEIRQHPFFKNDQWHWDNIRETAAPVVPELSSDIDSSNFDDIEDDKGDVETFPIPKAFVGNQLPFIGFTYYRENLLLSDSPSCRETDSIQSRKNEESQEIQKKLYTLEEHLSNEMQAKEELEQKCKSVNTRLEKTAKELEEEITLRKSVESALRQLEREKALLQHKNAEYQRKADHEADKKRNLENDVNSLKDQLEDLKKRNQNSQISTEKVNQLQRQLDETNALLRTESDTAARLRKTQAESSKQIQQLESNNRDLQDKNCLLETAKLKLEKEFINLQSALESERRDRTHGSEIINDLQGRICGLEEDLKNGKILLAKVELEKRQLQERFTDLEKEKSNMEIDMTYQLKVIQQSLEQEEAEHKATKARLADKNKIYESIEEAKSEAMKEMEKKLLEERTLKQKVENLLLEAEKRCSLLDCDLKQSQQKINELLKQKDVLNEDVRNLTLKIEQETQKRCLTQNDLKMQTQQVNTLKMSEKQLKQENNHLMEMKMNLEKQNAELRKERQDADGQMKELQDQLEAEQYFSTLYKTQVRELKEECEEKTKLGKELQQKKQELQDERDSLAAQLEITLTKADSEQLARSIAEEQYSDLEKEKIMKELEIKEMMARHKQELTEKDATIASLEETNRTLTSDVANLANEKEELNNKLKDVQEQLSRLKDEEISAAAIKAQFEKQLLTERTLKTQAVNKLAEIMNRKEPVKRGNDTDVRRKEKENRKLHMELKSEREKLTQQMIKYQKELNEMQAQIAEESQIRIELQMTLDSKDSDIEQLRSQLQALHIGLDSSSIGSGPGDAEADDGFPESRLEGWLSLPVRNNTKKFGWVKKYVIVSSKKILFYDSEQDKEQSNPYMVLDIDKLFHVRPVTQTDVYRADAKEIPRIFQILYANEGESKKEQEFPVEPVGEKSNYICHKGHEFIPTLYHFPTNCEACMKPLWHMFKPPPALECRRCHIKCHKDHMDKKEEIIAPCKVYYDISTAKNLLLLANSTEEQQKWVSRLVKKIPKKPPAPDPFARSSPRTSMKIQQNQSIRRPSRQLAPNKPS

This assay has as its target ROCK2 (human) (UniProt O75116). The assay is described as follows: Inhibition of ROCK2 Kinase Activity.
Turning to `O=C(Nc1cc2cc[nH]c(=O)c2cc1Cl)C1CNCCN1` (stereo not given), the half-inhibitory concentration (IC50) was < 1000 nM. With `COC(=O)C[C@@H](C)C(=O)Nc1cc2cc[nH]c(=O)c2cc1Cl`, the IC50 was < 1000 nM.

Turning to `COc1cc2c(=O)[nH]ccc2cc1NC(=O)[C@H](OC)c1ccccc1`, the concentration for half-maximal inhibition (IC50) is < 1000 nM. On to `CCN(CCN(C)C)C(C(=O)Nc1cc2cc[nH]c(=O)c2cc1Cl)c1ccccc1` (stereo not given), for which the IC50 was < 1000 nM.

In the case of `C[C@@](O)(C(=O)Nc1cc2cc[nH]c(=O)c2cc1Cl)c1ccccc1`, the half-inhibitory concentration (IC50) is < 1000 nM.

On to `N[C@H]1C[C@@H](C(=O)Nc2cc3cc[nH]c(=O)c3cc2Cl)C1`, for which the IC50 is < 1000 nM. Take `CC(C)(N)C(=O)Nc1ccc2c(=O)[nH]ccc2c1`: the IC50 is < 1000 nM. As for `C[C@@H](Oc1ccccc1)C(=O)Nc1cc2cc[nH]c(=O)c2cc1Cl`, the 50% inhibitory concentration (IC50) was < 1000 nM. The figure for `CC1(C(=O)Nc2cc3cc[nH]c(=O)c3cc2Cl)CCNCC1` is < 1000 nM; for `O=C(Nc1cc2cc[nH]c(=O)c2cc1Cl)c1ccc([N+](=O)[O-])cc1Cl` it is < 1000 nM.

On to `O=C(Nc1ccc2c(=O)[nH]cnc2c1)C(NC1CC1)c1ccccc1` (stereo not given), for which the IC50 was < 1000 nM. As for `CSCC(=O)Nc1cc2cc[nH]c(=O)c2cc1Cl`, the 50% inhibitory concentration (IC50) was < 1000 nM.

Regarding `O=C(Nc1cc2cc[nH]c(=O)c2cc1Cl)c1ccc(Br)cc1Cl`, the IC50 is < 1000 nM. Consider `Cc1cc(C(=O)Nc2ccc3c(=O)[nH]cnc3c2)n(C)n1`, for which the IC50 was < 1000 nM.

Regarding `O=c1[nH]ccc2cc(NC(=O)[C@H]3CC[C@@H](C(=O)O)CC3)c(Cl)cc12`, the concentration for half-maximal inhibition (IC50) was < 1000 nM. Take `O=c1[nH]ccc2cc(NC(=O)[C@H]3CC[C@H](C(=O)O)CC3)c(Cl)cc12`: the half-maximal inhibitory concentration (IC50) was < 1000 nM.

Take `O=C(Nc1cc2cc[nH]c(=O)c2cc1Cl)c1cccc([N+](=O)[O-])c1Cl`: the IC50 is < 1000 nM. With `COC(C(=O)Nc1cc2cc[nH]c(=O)c2cc1Cl)(c1ccccc1)C(F)(F)F` (stereo not given), the IC50 was < 1000 nM. Turning to `CC(C)(C)C(=O)Nc1cc2cc[nH]c(=O)c2cc1Cl`, the IC50 is < 1000 nM.

Turning to `CC(C(=O)Nc1cc2cc[nH]c(=O)c2cc1Cl)N1CCSCC1` (stereo not given), the 50% inhibitory concentration (IC50) is < 1000 nM. Regarding `N[C@H](Cc1ccncc1)C(=O)Nc1cc2cc[nH]c(=O)c2cc1Cl`, the IC50 is < 1000 nM. As for `O=C(Nc1cc2cc[nH]c(=O)c2cc1Cl)c1c(F)ccc(F)c1F`, the half-inhibitory concentration (IC50) is < 1000 nM. On to `O=C(Nc1ccc2c(=O)[nH]cnc2c1)[C@H]1CCCN1`, for which the half-maximal inhibitory concentration (IC50) was < 1000 nM. As for `NC1(C(=O)Nc2ccc3c(=O)[nH]ccc3c2)CCCCC1`, the IC50 was < 1000 nM. For `O=C(Nc1cc2cc[nH]c(=O)c2cc1Cl)c1c(F)cc(F)cc1F`, the IC50 was < 1000 nM.
